Test results from ChEMBL document CHEMBL1153123, “Antiplasmodial activity of piperazine sulfonamides” (Bioorg Med Chem Lett, 2010).

Experiments:
Plasmodium falciparum [1] = test: Antiplasmodial activity against Plasmodium falciparum Dd2 in human O+ erythrocytes after 72 hrs by DAPI staining; assay type: functional, organism-based; conditions: Dd2, 72 h
Plasmodium falciparum [2] = test: Antiplasmodial activity against Plasmodium falciparum 3D7 in human O+ erythrocytes after 72 hrs by DAPI staining; assay type: functional, organism-based; conditions: 3D7, 72 h

EC50 (Plasmodium falciparum [1]) [nM] | EC50 (Plasmodium falciparum [2]) [nM] | Compound
> 10000 |  | O=[N+]([O-])c1ccc(S(=O)(=O)N2CCN(Cc3ccccc3)CC2)cc1
211 |  | O=[N+]([O-])c1ccc(S(=O)(=O)N2CCN(C(=S)NCCc3ccccc3)CC2)cc1
337 | 313 | O=[N+]([O-])c1ccc(S(=O)(=O)N2CCN(C(=S)NCC3CCCO3)CC2)cc1 (stereo not drawn)
860 | 667 | O=S(=O)(c1ccc(Cl)cc1)N1CCN(C(=S)NCC2CCCO2)CC1 (stereo not drawn)
354 | 310 | COCCNC(=S)N1CCN(S(=O)(=O)c2ccc([N+](=O)[O-])cc2)CC1
> 10000 | 6490 | O=S(=O)(c1ccc2c(c1)OCCO2)N1CCN(C(=S)NCc2ccccc2)CC1
2300 | 2550 | O=C(NCc1ccco1)N1CCN(S(=O)(=O)c2ccc(Cl)cc2)CC1
> 10000 | > 10000 | CS(=O)(=O)N1CCN(C(=S)NCc2ccco2)CC1
3130 | 2410 | O=S(=O)(c1ccccc1F)N1CCN(C(=S)NCc2ccccc2)CC1
400 |  | O=S(=O)(c1ccc(Cl)cc1)N1CCN(C(=S)NCc2ccc(Cl)cc2)CC1
13000 | 11400 | C/N=C(/SCc1ccccc1)N1CCN(S(=O)(=O)c2ccc([N+](=O)[O-])cc2)CC1
1920 | 1860 | O=S(=O)(c1ccccc1)N1CCN(C(=S)NCc2ccccc2)CC1
873 | 830 | O=S(=O)(c1ccc(Br)cc1Cl)N1CCN(C(=S)NCc2ccccc2)CC1
4480 | 6410 | O=C(NCc1ccco1)N1CCN(S(=O)(=O)c2ccc([N+](=O)[O-])cc2)CC1
6190 | 6060 | O=[N+]([O-])c1ccc(S(=O)(=O)N2CCC(C(=S)NCc3ccccc3)CC2)cc1
1960 | 1230 | CCOc1ccc(S(=O)(=O)N2CCN(C(=S)NCc3ccccc3)CC2)cc1

EC50 (Plasmodium falciparum [1]) [nM] | EC50 (Plasmodium falciparum [2]) [nM] | Compound
1690 | 1250 | O=[N+]([O-])c1ccc(S(=O)(=O)N2CCN(C(=S)CCc3ccccc3)CC2)cc1
1970 | 1470 | O=S(=O)(c1cccc(F)c1)N1CCN(C(=S)NCc2ccccc2)CC1
10000 | 11100 | Cc1cc(Nc2ccccc2)nc(N2CCN(S(=O)(=O)c3ccc([N+](=O)[O-])cc3)CC2)n1
5810 | 3970 | Cc1cc(NCc2ccccc2)nc(N2CCN(S(=O)(=O)c3ccc([N+](=O)[O-])cc3)CC2)n1
6050 |  | O=[N+]([O-])c1ccc(S(=O)(=O)N2CCN(C/C=C/c3ccccc3)CC2)cc1
103 | 56 | O=[N+]([O-])c1ccc(S(=O)(=O)N2CCN(C(=S)NCc3ccccc3)CC2)cc1
117 | 64 | O=[N+]([O-])c1ccc(S(=O)(=O)N2CCN(C(=S)NCc3ccco3)CC2)cc1
3740 | 5950 | O=C(NCc1ccccc1)C1CCN(S(=O)(=O)c2ccc([N+](=O)[O-])cc2)CC1
> 25000 | > 25000 | N=C(NCc1ccccc1)N1CCN(S(=O)(=O)c2ccc([N+](=O)[O-])cc2)CC1
13600 | 13500 | O=C(CCc1ccccc1)N1CCN(S(=O)(=O)c2ccc([N+](=O)[O-])cc2)CC1
492 | 447 | O=S(=O)(c1ccc(F)cc1)N1CCN(C(=S)NCc2ccccc2)CC1
> 10000 | > 10000 | CCNC(=S)N1CCN(S(=O)(=O)c2ccccc2C(F)(F)F)CC1
1610 | 1520 | O=S(=O)(c1ccc(F)c(F)c1F)N1CCN(C(=S)NCc2ccccc2)CC1
544 | 615 | O=S(=O)(c1ccc(Cl)cc1)N1CCN(C(=S)NCc2ccco2)CC1
4410 | 2670 | O=S(=O)(c1c(Cl)cc(Br)cc1Cl)N1CCN(C(=S)NCc2ccccc2)CC1
